Laboratory results published in article doi:10.1101/2024.06.17.599304v1, “Dizocilpine derivatives with neuroprotective effect lacking the psychomimetic side effects” (biorxiv, 2024).
Where a name gives a salt, the structure may show the parent alone.

Legend:
hGluN1/hGluN2B = hGluN1/hGluN2B (Homo sapiens, UniProt Q05586+Q13224); experiment: cell-based; set-up: gene GRIN1; cDNA vectors for human GluN1-1a and GluN2B co-transfected with GFP in HEK293 cells; diheteromeric receptor; whole-cell voltage-clamp electrophysiology, inhibition of steady-state L-glutamate-induced currents at -60 mV; settings: HEK293; -60 mV, 1 mM L-glutamate
hGluN1/hGluN2B, sequence (Q13224 27-1484, other chains not shown): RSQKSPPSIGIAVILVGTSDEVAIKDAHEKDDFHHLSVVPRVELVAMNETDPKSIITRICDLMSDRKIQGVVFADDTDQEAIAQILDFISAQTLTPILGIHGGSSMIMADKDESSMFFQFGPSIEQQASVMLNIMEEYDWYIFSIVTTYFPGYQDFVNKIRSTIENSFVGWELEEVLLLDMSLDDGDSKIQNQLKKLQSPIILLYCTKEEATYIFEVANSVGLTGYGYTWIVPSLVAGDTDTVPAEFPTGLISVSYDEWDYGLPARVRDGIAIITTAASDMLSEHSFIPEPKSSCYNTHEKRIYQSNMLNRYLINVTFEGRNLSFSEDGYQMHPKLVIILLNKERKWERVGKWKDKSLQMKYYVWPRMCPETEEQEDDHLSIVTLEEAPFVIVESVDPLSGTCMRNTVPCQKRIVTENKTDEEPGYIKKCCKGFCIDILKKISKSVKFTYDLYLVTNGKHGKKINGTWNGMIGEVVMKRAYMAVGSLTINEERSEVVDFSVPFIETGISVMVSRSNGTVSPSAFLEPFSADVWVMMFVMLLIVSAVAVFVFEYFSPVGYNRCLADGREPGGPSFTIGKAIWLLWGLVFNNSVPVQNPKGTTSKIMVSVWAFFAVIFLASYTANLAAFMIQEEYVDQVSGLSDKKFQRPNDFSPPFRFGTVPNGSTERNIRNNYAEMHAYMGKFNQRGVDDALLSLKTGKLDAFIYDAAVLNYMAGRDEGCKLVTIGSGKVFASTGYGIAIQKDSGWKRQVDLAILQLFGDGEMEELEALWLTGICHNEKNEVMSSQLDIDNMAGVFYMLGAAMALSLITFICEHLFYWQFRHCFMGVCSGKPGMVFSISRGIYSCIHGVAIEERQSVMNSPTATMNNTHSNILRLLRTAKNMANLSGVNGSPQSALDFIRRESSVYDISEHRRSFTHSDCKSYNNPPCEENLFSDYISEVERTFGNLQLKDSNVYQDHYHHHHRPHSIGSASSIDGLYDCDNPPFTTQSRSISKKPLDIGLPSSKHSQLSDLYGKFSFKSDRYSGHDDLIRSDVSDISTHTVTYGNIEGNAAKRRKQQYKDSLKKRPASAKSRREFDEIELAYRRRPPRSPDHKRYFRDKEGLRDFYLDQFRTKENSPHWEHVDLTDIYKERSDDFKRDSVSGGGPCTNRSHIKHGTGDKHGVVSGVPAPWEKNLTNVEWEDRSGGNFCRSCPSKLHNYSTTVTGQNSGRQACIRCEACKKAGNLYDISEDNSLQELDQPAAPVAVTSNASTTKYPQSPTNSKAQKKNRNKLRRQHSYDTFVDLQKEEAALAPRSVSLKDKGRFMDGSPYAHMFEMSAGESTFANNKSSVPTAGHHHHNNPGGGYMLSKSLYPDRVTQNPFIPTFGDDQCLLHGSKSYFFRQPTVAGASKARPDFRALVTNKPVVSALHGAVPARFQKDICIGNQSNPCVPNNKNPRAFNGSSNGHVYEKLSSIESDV
Procedure: (§1) First, we determined the relative inhibition of all novel compounds on the two major diheteromeric NMDA receptor subtypes in the adult cortex – GluN1/GluN2A and GluN1/GluN2B [1] – using a clinically relevant concentration (3 µM). We kept the measured cells at a membrane potential of -60 mV, and the values of relative inhibition by the compounds were calculated from the L-glutamate-induced responses of human versions of the GluN1/GluN2A (hGluN1/hGluN2A) and GluN1/GluN2B (hGluN1/hGluN2B) receptors obtained under steady-state conditions. […] Specifically, in the case of hGluN1/hGluN2A receptors, we obtained relative inhibition values ranging from ∼5% for compound 3h to ∼93% for compound 6f, while for hGluN1/hGluN2B receptors, we measured values ranging from ∼3% for compound 3i to ∼92% for compound 6g at a fixed dose of 3 µM of the tested compound. […] It can be assumed that the positive and negative effects of a given inhibitor of the NMDA receptor in vivo are caused by their affinity and the kinetics of inhibition, in addition to their availability in the CNS. […] In further experiments, we generated concentration-response curves for 6f (0.03-10 µM) and 3l (0.3-300 µM) on both hGluN1/hGluN2A and hGluN1/hGluN2B receptors at negative (-60 mV) and positive (40 mV) membrane potentials (Fig. 2A-D). […] (A, C) Representative whole-cell voltage-clamp recordings of HEK293 cells expressing hGluN1/hGluN2A or hGluN1/hGluN2B receptors showing the inhibitory effects of compound 6f (0.03 - 300 µM) and compound 3l (0.3 - 300 µM) at membrane potentials of 40 mV (A) and -60 mV (C). Glu = 1 mM L-glutamate. (B, D) Normalized inhibitory concentration-response curves for compound 6f and compound 3l for hGluN1/hGluN2A and hGluN1/hGluN2B receptors at membrane potentials of 40 mV (B) and -60 mV (D). Concentration-response curves were fitted using Equation 1; the resulting IC50 values, Hill coefficients, and the numbers of cells measured for each membrane potential are shown in Table 3.

[1] = biological target: T1, human recombinant AChE (hAChE) (Homo sapiens, UniProt P22303); experiment: modified Ellman's method; format: biochemical
T1 construct: recombinant enzyme purchased from Merck
T1 sequence (P22303 32-614): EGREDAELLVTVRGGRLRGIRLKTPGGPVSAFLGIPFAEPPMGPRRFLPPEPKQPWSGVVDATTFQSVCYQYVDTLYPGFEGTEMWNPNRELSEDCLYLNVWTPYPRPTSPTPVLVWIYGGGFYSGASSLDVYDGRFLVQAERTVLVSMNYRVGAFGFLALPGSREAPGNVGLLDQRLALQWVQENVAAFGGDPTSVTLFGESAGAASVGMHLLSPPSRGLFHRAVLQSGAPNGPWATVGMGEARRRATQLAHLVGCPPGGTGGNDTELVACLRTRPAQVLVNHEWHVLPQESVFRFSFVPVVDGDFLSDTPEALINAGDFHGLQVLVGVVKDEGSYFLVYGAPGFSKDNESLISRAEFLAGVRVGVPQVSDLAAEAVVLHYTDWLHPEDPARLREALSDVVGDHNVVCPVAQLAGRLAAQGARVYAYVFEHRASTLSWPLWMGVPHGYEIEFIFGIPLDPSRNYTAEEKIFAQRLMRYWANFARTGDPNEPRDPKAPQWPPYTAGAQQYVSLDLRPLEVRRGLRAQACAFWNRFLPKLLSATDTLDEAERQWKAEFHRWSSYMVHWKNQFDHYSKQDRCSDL

hGluN1/hGluN2A = hGluN1/hGluN2A (Homo sapiens, UniProt Q05586+Q12879); experiment: cell-based; set-up: gene GRIN1; cDNA vectors for human GluN1-1a and GluN2A co-transfected with GFP in HEK293 cells; diheteromeric receptor; whole-cell voltage-clamp electrophysiology, inhibition of steady-state L-glutamate-induced currents at -60 mV; settings: HEK293; -60 mV, 1 mM L-glutamate
hGluN1/hGluN2A, sequence (Q12879 23-1464, other chains not shown): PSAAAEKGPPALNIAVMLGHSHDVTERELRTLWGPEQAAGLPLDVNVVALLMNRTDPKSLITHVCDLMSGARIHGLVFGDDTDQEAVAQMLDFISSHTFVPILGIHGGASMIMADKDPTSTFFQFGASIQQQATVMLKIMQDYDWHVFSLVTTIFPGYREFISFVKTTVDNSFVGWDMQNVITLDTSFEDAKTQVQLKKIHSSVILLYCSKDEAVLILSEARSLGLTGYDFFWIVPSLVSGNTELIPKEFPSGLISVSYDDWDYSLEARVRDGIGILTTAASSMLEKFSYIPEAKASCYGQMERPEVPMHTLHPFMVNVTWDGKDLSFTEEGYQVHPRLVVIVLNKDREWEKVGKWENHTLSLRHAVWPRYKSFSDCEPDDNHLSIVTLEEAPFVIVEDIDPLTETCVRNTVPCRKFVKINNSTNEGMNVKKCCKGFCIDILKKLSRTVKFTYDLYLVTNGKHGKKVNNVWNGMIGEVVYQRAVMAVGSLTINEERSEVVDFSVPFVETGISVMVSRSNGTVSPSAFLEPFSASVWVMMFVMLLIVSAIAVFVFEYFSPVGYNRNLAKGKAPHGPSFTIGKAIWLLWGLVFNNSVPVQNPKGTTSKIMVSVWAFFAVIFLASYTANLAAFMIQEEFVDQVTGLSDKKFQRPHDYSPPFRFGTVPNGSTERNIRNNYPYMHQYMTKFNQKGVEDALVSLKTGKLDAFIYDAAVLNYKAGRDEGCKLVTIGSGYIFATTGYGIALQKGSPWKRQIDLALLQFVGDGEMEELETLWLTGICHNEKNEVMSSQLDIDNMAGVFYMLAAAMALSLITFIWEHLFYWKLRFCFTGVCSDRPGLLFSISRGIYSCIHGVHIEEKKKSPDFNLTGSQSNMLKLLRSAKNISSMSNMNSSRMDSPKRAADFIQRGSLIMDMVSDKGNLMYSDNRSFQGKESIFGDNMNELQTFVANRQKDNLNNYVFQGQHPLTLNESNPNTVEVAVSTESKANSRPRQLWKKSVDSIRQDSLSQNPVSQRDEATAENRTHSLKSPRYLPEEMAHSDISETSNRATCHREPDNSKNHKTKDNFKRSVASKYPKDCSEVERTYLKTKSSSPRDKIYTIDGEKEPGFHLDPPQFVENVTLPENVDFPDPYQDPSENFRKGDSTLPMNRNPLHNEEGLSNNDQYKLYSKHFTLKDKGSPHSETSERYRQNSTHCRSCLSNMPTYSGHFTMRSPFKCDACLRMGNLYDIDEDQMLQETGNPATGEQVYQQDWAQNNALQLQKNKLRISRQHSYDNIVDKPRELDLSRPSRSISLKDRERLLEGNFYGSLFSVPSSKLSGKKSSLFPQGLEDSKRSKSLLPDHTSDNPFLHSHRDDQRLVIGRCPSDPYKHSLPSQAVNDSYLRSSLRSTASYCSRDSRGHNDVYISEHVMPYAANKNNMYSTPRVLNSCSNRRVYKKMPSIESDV
Procedure: as §1

[2] = biological target: T2, human plasmatic butyrylcholinesterase (hBChE) (Homo sapiens, UniProt P06276); experiment: biochemical
T2 construct: gene BCHE
T2 sequence (P06276 29-602): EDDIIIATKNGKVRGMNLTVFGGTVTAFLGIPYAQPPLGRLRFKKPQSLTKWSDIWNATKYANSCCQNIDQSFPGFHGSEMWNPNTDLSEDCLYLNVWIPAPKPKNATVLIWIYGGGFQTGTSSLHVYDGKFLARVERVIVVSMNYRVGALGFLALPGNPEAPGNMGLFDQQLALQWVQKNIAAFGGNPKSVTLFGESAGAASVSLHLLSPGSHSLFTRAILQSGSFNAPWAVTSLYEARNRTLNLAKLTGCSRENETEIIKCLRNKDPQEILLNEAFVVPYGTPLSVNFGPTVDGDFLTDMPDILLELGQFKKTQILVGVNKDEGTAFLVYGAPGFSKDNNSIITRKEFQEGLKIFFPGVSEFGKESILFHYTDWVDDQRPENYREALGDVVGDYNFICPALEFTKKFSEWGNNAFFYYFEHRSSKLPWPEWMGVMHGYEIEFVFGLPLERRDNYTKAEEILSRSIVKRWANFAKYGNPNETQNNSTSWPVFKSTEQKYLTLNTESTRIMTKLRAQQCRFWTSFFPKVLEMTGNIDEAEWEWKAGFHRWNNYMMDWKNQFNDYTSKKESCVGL

SMILES | inhibition at 3 µM (hGluN1/hGluN2B) [%] | IC50 [1] [µM] | inhibition at 3 µM (hGluN1/hGluN2A) [%] | IC50 [2] [µM]
CCNC1c2ccccc2CCc2ccccc21 [3b, N-ethyl-10,11-dihydro-5H-dibenzo[a,d][7]annulen-5-amine hydrochloride] | 51.8 ± 3.39 | > 100 | 34 ± 4.6 | > 100
CC(C)NC1c2ccccc2CCc2ccccc21 [3c, N-isopropyl-10,11-dihydro-5H-dibenzo[a,d][7]annulen-5-amine hydrochloride] | 76.9 ± 3.57 | > 100 | 52.2 ± 5.23 | > 100
c1ccc2c(c1)CCc1ccccc1C2NC1CC1 [3d, N-cyclopropyl-10,11-dihydro-5H-dibenzo[a,d][7]annulen-5-amine hydrochloride] | 53.6 ± 3.16 | > 100 | 40.1 ± 3.42 | > 100
CCCCNC1c2ccccc2CCc2ccccc21 [3e, N-butyl-10,11-dihydro-5H-dibenzo[a,d][7]annulen-5-amine hydrochloride] | 85.8 ± 2.19 | > 100 | 76.4 ± 4.03 | > 100
c1ccc2c(c1)CCc1ccccc1C2N1CCCCC1 [3h, 1-(10,11-dihydro-5H-dibenzo[a,d][7]annulen-5-yl)piperidine hydrochloride] | 5.2 ± 1.56 | > 100 | 5.4 ± 1.39 | > 100
c1ccc2c(c1)CCc1ccccc1C2N1CCOCC1 [3i, 4-(10,11-dihydro-5H-dibenzo[a,d][7]annulen-5-yl)morpholine hydrochloride] | 3.43 ± 1.33 | > 100 | 6.78 ± 1.67 | > 100
COCCNC1c2ccccc2CCc2ccccc21 [3j, N-(2-methoxyethyl)-10,11-dihydro-5H-dibenzo[a,d][7]annulen-5-amine hydrochloride] | 66.6 ± 3.9 | > 100 | 34.9 ± 4.8 | > 100
c1ccc2c(c1)CCc1ccccc1C2N1CCCC1 [3k, 1-(10,11-dihydro-5H-dibenzo[a,d][7]annulen-5-yl)pyrrolidine hydrochloride] | 62.1 ± 3.44 | > 100 | 49.8 ± 3.27 | > 100
CN1CCN(C2c3ccccc3CCc3ccccc32)CC1 [3m, 1-(10,11-dihydro-5H-dibenzo[a,d][7]annulen-5-yl)-4-methylpiperazine dihydrochloride] | 9.49 ± 2.17 | > 100 | 9.7 ± 2.41 | > 100
CCN(CC)C1c2ccccc2CCc2ccccc21 [3n, N,N-diethyl-10,11-dihydro-5H-dibenzo[a,d][7]annulen-5-amine hydrochloride] | 75 ± 3.14 | > 100 | 68.4 ± 4.84 | > 100
CCN1CCN(C2c3ccccc3CCc3ccccc32)CC1 [3o, 1-(10,11-dihydro-5H-dibenzo[a,d][7]annulen-5-yl)-4-ethylpiperazine dihydrochloride] | 5.22 ± 1.49 | > 100 | 7.64 ± 0.84 | > 100
CNC1c2ccccc2C=Cc2ccccc21 [6a, N-methyl-5H-dibenzo[a,d][7]annulen-5-amine hydrochloride] | 68.9 ± 3.57 | > 100 | 54.3 ± 3.11 | > 100
CCNC1c2ccccc2C=Cc2ccccc21 [6b, N-ethyl-5H-dibenzo[a,d][7]annulen-5-amine hydrochloride] | 59.9 ± 3.15 | > 100 | 39.9 ± 4.78 | > 100
CC(C)NC1c2ccccc2C=Cc2ccccc21 [6c, N-isopropyl-5H-dibenzo[a,d][7]annulen-5-amine hydrochloride] | 76 ± 2.22 | > 100 | 75.6 ± 2.36 | > 100
C1=Cc2ccccc2C(NC2CC2)c2ccccc21 [6d, N-cyclopropyl-5H-dibenzo[a,d][7]annulen-5-amine hydrochloride] | 57.2 ± 3.27 | > 100 | 45 ± 3.55 | > 100
